From ChEMBL document CHEMBL1144045, “Potent achiral agonists of the growth hormone secretagogue (ghrelin) receptor. Part 2: Lead optimisation” (Bioorg Med Chem Lett, 2008) come the findings set out here.

Series [1] deals with T1, Growth hormone secretagogue receptor type 1 (Homo sapiens, UniProt Q92847). The series is described as follows: Agonist activity at human GHSR1a by FLIPR assay relative to human ghrelin. Type of series: functional.
Series [2] addresses T1, Growth hormone secretagogue receptor type 1. Kind of series: Agonist activity at human GHSR1a by FLIPR assay. Type of series: functional.
Series [3] addresses 5-hydroxytryptamine receptor 1B (Homo sapiens, UniProt P28222). The series is described as follows: Binding affinity to 5HT1B receptor.
The next series concerns Rattus norvegicus. Kind of series: Effect on food intake in Sprague-Dawley rat at 3 mg/kg, po after 2 hrs. Type of series: functional.
Series [4] can be described thus: Oral bioavailability in Sprague-Dawley rat at 3 mg/kg. It is filed as ADME, organism-based. To be noted: in vivo.
A short description of series [5]: Clearance in Sprague-Dawley rat at 1 mg/kg, iv. Also noted: dose 1 mg/kg, route intravenous. To be noted: in vivo. Type of series: ADME, organism-based.
Series [6] can be described thus: Half life in Sprague-Dawley rat. It is filed as ADME, organism-based. The conditions noted are these: in vivo.
A short description of series [7]: Volume of distribution at steady state in Sprague-Dawley rat. Type of series: ADME, organism-based. To be noted: in vivo, read-out: Vdss.

T1 sequence (Q92847 whole entry): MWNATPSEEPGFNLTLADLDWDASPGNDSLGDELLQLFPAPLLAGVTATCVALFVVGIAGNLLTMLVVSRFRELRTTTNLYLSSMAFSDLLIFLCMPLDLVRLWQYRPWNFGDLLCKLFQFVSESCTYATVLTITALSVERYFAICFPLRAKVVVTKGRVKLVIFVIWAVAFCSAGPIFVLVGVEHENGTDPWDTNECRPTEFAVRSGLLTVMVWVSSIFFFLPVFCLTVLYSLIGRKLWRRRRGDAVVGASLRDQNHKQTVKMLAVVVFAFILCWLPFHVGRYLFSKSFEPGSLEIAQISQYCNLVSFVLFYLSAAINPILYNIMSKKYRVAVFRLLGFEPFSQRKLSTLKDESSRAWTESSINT
5-hydroxytryptamine receptor 1B, sequence (P28222 whole entry): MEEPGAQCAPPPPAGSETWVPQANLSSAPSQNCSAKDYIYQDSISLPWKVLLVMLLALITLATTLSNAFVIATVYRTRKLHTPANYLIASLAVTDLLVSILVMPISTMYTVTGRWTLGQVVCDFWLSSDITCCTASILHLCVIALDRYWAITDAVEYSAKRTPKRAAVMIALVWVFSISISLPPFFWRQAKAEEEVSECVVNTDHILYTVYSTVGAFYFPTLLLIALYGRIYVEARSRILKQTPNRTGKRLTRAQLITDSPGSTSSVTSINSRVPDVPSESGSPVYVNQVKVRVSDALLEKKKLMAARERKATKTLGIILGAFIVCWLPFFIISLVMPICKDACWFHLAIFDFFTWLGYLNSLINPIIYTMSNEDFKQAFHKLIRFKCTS

`COc1ccc(N2C[C@@H](C)N[C@@H](C)C2)cc1NS(=O)(=O)c1ccc(-c2ccccc2)cc1` showed an Intrinsic activity in series [1] of 1. This molecule gave an EC50 in series [2] of 6.31 nM.
`COc1ccc(N2C[C@@H](C)N[C@@H](C)C2)cc1NS(=O)(=O)c1ccc(-c2cccs2)cc1F` gave an Intrinsic activity in series [1] of 0.9. Further, the EC50 in series [2] was 2 nM.
On to `COc1ccc(F)c(-c2ccc(S(=O)(=O)Nc3cc(N4C[C@@H](C)N[C@@H](C)C4)ccc3OC)cc2)c1`, for which the Intrinsic activity in series [1] turned out to be 1.2. In series [2], this molecule showed an EC50 of 0.398 nM.
Regarding `C[C@@H]1CN(c2ccc(C(=O)N(C)C)c(NS(=O)(=O)c3ccc(-c4ccccn4)s3)c2)C[C@H](C)N1`, the Intrinsic activity in series [1] worked out at 0.9. Also, the EC50 in series [2] is 794 nM.
As to `COc1ccc(N2C[C@@H](C)N[C@@H](C)C2)cc1NS(=O)(=O)c1ccc(-c2ccco2)cc1`, the Intrinsic activity in series [1] came to 0.9. The molecule further had an EC50 in series [2] of 3.98 nM.
Turning to `COc1ccc(N2C[C@@H](C)N[C@@H](C)C2)cc1NS(=O)(=O)c1ccc(-c2cccs2)cc1Cl`, in series [1], the Intrinsic activity stood at 0.9. In addition, in series [2], the EC50 was 0.794 nM.
In series [1], `COc1ccc(N2C[C@@H](C)N[C@@H](C)C2)cc1NS(=O)(=O)c1ccc(N2CCCC2=O)cc1` came in with an Intrinsic activity of 0.8. In series [2], this molecule had an EC50 of 39.8 nM.
Molecule `CC(C)Oc1ccc(N2C[C@@H](C)N[C@@H](C)C2)cc1NS(=O)(=O)c1ccc(-c2ccccn2)s1` had an Intrinsic activity in series [1] of 1.1. The EC50 in series [2] was 100 nM.
On to `COc1ccc(N2C[C@@H](C)N[C@@H](C)C2)cc1NS(=O)(=O)c1ccc(-n2cccn2)cc1`, for which the Intrinsic activity in series [1] is 0.8. In series [2], this molecule showed an EC50 of 15.8 nM.
In series [1], `COc1ccc(N2C[C@@H](C)N[C@@H](C)C2)cc1NS(=O)(=O)c1ccc(Br)cc1` displayed an Intrinsic activity of 0.7. This molecule had an EC50 in series [2] of 126 nM.
For `CC(=O)c1ccc(N2C[C@@H](C)N[C@@H](C)C2)cc1NS(=O)(=O)c1ccc(-c2ccccn2)s1`, the Intrinsic activity in series [1] was found to be 0.9. Besides, the EC50 in series [2] was 39.8 nM.
Turning to `C[C@@H]1CN(c2ccc(Cl)c(NS(=O)(=O)c3ccc(-c4ccccn4)s3)c2)C[C@H](C)N1`, in series [1], the Intrinsic activity was determined as 1. The same molecule gave an EC50 in series [2] of 39.8 nM.
In turn, `COc1ccc(N2C[C@@H](C)N[C@@H](C)C2)cc1NS(=O)(=O)c1ccc(-c2cncnc2)cc1` had an Intrinsic activity in series [1] of 0.6. In series [2], this molecule showed an EC50 of 316 nM.
With `C[C@@H]1CN(c2cc(NS(=O)(=O)c3ccc(-c4ccccn4)s3)ccc2C#N)C[C@H](C)N1`, the Intrinsic activity in series [1] is 0.9. In series [2], a half-maximal response (EC50) required 631 nM.
The like results for `CCOc1ccc(N2C[C@@H](C)N[C@@H](C)C2)cc1NS(=O)(=O)c1ccc(-c2ccccn2)s1` were, in that order, 0.8 and 39.8 nM.
On to `COc1ccc(N2C[C@@H](C)N[C@@H](C)C2)cc1NS(=O)(=O)c1ccc(-c2ccncc2)cc1`, for which the Intrinsic activity in series [1] was 0.7. Moreover, the concentration giving a half-maximal response (EC50) in series [2] is 316 nM.
The like results for `COc1ccc(N2C[C@@H](C)N[C@@H](C)C2)cc1NS(=O)(=O)c1ccc(-c2cnco2)s1` were, in that order, 0.9 and 2.51 nM.
Take `C[C@@H]1CN(c2ccc(F)c(NS(=O)(=O)c3ccc(-c4ccccn4)s3)c2)C[C@H](C)N1`: in series [1], the Intrinsic activity turned out to be 0.8. Further, the EC50 in series [2] was 100 nM.
As to `C[C@@H]1CN(c2cccc(NS(=O)(=O)c3ccc(-c4ccccn4)s3)c2)C[C@H](C)N1`, the Intrinsic activity in series [1] was found to be 0.8. The midpoint of the response in series [2], the EC50, lay at 39.8 nM.
Turning to `COc1ccc(N2C[C@@H](C)N[C@@H](C)C2)cc1NS(=O)(=O)c1cccc(-c2ccccc2)c1`, in series [1], the Intrinsic activity was 1. In addition, the half-maximal effective concentration (EC50) in series [2] was 158 nM.
The molecule `COc1ccc(N2C[C@@H](C)N[C@@H](C)C2)cc1NS(=O)(=O)c1cccc(-c2ccco2)c1` yielded an Intrinsic activity in series [1] of 1. Moreover, the response in series [2] was half-maximal at 20 nM (EC50).
As for `COc1ccc(NS(=O)(=O)c2ccc(-c3ccccn3)s2)cc1N1C[C@@H](C)N[C@@H](C)C1`, the Intrinsic activity in series [1] came out at 0.9. Moreover, a half-maximal response in series [2] (EC50) required 15.8 nM.
In series [1], `COc1ccc(N2C[C@@H](C)N[C@@H](C)C2)cc1NS(=O)(=O)c1ccc(-c2ccc(C)o2)cc1` showed an Intrinsic activity of 1. Further, the Ki in series [3] is above 3160 nM. The molecule further registered an Activity in the series on Rattus norvegicus of 544%. Also, the bioavailability in series [4] was determined as 75%. This molecule registered a clearance in series [5] of 24 mL/min/kg. The molecule also showed a half-life in series [6] of 1.9 h. In addition, the Vd in series [7] came to 3.3 L/kg. The molecule further showed an EC50 in series [2] of 0.794 nM.
The molecule `COc1ccc(N2C[C@@H](C)N[C@@H](C)C2)cc1NS(=O)(=O)c1ccc(-c2cc(Cl)ccc2F)cc1` showed an Intrinsic activity in series [1] of 1. In series [2], this molecule had an EC50 of 0.501 nM.
`COc1ccc(N2C[C@@H](C)N[C@@H](C)C2)cc1NS(=O)(=O)c1ccc(-c2ccccn2)s1` returned an Intrinsic activity in series [1] of 1.1. For the same molecule, in series [2], the EC50 is 10 nM.
In series [1], `COc1cccc(-c2ccc(S(=O)(=O)Nc3cc(N4C[C@@H](C)N[C@@H](C)C4)ccc3OC)cc2)c1` returned an Intrinsic activity of 1. The midpoint of the response in series [2], the EC50, lay at 2 nM.
Consider `COc1ccc(N2C[C@@H](C)N[C@@H](C)C2)cc1NS(=O)(=O)c1ccc(-c2cccs2)cc1`, for which the Intrinsic activity in series [1] came out at 1. This molecule also gave a Ki in series [3] above 3160 nM. The molecule further returned an Activity in the series with Rattus norvegicus of 292%. In series [4], this molecule had a bioavailability of 74%. Also, the clearance in series [5] was found to be 26 mL/min/kg. This molecule gave a half-life in series [6] of 1 h. Moreover, the Vd in series [7] was 1.6 L/kg. The concentration for a half-maximal effect (EC50) in series [2] is 3.98 nM.
Molecule `COc1ccc(N2C[C@@H](C)N[C@@H](C)C2)cc1NS(=O)(=O)c1ccc(OCc2ccccc2)cc1` showed an Intrinsic activity in series [1] of 0.8. This molecule had an EC50 in series [2] of 100 nM.
As for `COc1ccc(N2C[C@@H](C)N[C@@H](C)C2)cc1NS(=O)(=O)c1ccc(Oc2ccccc2)cc1`, in series [1], the Intrinsic activity was 0.9. Also, the EC50 in series [2] is 63.1 nM.
